Measured values taken from publication PMC6939882 (Molecular microbiology, 2017).

Assays:
[1] = target: T1, Amy13K ΔCBMa-e (Agathobacter rectalis, UniProt A0ABF7PGZ5); assay: isothermal titration calorimetry of hydrolysis; type: biochemical; conditions: 37 °C; only kcat/KM printed
T1 sequence (A0ABF7PGZ5 621-1364 limits assumed): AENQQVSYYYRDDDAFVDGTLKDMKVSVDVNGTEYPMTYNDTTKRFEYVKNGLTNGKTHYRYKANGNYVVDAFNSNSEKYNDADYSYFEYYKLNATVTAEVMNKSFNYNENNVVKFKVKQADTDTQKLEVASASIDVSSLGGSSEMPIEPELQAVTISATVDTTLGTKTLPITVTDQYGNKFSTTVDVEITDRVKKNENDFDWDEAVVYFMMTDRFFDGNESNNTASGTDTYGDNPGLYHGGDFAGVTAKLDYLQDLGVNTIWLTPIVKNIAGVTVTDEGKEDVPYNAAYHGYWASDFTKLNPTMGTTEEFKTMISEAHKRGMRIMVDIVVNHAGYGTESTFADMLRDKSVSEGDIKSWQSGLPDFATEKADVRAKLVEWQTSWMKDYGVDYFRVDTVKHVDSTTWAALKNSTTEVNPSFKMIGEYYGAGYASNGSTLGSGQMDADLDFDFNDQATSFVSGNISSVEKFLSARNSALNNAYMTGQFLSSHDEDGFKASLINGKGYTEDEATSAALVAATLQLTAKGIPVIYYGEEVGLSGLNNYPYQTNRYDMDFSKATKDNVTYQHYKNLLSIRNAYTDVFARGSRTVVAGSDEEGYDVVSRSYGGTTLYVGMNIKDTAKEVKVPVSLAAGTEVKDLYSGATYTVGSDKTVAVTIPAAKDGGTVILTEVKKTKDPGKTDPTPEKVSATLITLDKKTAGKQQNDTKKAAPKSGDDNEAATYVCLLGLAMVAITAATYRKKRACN

[2] = target: T2, Amy13K WT (Agathobacter rectalis, UniProt A0ABF7PGZ5); assay: isothermal titration calorimetry of hydrolysis; type: biochemical; conditions: 37 °C; only kcat/KM printed
T2 sequence (A0ABF7PGZ5 44-1364): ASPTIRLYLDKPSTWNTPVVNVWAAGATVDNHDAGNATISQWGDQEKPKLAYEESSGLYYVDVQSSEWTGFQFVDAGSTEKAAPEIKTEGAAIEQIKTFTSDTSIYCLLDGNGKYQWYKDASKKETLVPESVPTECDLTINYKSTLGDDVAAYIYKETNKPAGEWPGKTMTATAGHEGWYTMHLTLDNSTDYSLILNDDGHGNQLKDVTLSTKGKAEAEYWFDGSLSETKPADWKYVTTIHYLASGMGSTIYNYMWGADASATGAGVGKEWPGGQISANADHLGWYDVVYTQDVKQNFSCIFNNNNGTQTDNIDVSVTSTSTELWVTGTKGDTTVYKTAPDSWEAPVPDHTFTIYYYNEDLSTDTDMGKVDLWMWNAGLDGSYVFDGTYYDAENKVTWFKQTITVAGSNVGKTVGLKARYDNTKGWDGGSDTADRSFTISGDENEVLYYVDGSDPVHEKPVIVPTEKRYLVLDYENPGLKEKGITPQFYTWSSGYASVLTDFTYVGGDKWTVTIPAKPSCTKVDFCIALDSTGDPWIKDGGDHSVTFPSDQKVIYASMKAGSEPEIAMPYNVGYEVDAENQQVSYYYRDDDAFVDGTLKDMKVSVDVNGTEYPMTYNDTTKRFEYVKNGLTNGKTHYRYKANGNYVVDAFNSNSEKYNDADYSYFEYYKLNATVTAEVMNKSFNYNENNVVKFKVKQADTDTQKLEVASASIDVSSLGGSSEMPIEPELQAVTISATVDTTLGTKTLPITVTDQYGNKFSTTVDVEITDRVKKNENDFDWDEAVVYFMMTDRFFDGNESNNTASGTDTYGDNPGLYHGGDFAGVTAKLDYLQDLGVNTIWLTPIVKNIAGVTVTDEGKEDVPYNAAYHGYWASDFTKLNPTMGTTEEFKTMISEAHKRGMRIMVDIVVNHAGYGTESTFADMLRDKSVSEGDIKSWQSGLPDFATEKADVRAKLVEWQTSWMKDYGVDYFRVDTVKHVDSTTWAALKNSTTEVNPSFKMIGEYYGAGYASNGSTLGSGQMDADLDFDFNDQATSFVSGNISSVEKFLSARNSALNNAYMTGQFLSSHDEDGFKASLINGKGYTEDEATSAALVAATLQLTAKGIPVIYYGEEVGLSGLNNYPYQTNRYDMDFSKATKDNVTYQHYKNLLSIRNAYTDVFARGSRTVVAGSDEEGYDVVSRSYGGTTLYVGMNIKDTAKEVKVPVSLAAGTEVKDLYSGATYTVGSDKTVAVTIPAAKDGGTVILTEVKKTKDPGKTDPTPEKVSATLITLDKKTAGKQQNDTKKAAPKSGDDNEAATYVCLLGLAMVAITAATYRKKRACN

SMILES: OC[C@H]1O[C@H](O[C@H]2[C@H](O)[C@@H](O)[C@@H](O[C@H]3[C@H](O)[C@@H](O)[C@@H](O[C@H]4[C@H](O)[C@@H](O)[C@@H](O[C@H]5[C@H](O)[C@@H](O)[C@@H](O[C@H]6[C@H](O)[C@@H](O)[C@@H](O[C@H]7[C@H](O)[C@@H](O)C(O)O[C@@H]7CO)O[C@@H]6CO)O[C@@H]5CO)O[C@@H]4CO)O[C@@H]3CO)O[C@@H]2CO)[C@H](O)[C@@H](O)[C@@H]1O (some centres unmarked) [maltoheptaose]
- isothermal titration calorimetry of hydrolysis [1]: The catalytic efficiency of the WT and ΔCBMa-e on maltoheptaose are
- isothermal titration calorimetry of hydrolysis [2]: The catalytic efficiency of the WT and ΔCBMa-e on maltoheptaose are
